Where two headings read alike, the source gives them in different places.
Assays:
[1] = system: Pseudomonas syringae pv. tomato; test: In vivo preventive test on Pseudomonas syringae pv. tomato (bacterial speck on tomato); settings: sprayed 72 hours before inoculation, evaluated 5 or 6 days after inoculation, read-out: efficacy; for pest or weed control at 500 ppm: 500 ppm of active ingredient; for pest or weed control at 31 ppm: 31 ppm of active ingredient; for pest or weed control at 125 ppm: 125 ppm of active ingredient
Experimental: The tested active ingredients were prepared by homogenization in a mixture of acetone/Dimethyl sulfoxide/Tween®, and then diluted with water to obtain the desired active material concentration.
The young plants of tomato were treated by spraying the active ingredient prepared as described above. Control plants were treated only with an aqueous solution of acetone/Dimethyl sulfoxide/Tween®.
After 72 hours, the plants were contaminated by spraying the leaves with an aqueous bacteria suspension of Pseudomonas syringae pv. tomato. The contaminated tomato plants were incubated for 4 days in saturated atmosphere at 22° C. day/20° C. night−70% HR and then for 1 or 2 days at 22° C. day/20° C. night at 70-80% relative humidity.
The test was evaluated 5 or 6 days after the inoculation. 0% means an efficacy which corresponds to that of the control plants while an efficacy of 100% means that no disease was observed.

[2] = system: Colletotrichum lindemuthianum; test: Colletotrichum lindemuthianum in vitro cell test; assay type: cell-based; settings: 144 h, 6 days incubation, read-out: efficacy (inhibition of fungal growth; no direct activity); for inhibition at 5 ppm: 5 ppm of active ingredient; for inhibition at 20 ppm: 20 ppm of active ingredient
Procedure, shortened: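 Inhibition of spore germination and mycelial growth in liquid culture, read spectrometrically after 6 days incubation. Compounds added from DMSO (final ≤1%) to spores in glucose/peptone/yeast-extract medium; absorbance compared with untreated controls.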

[3] = system: salicylate responsive promoter sequence of the PR1 (pathogenesis-related protein I) gene (AT2G14610); test: Induction of defense gene expression in Arabidopsis thaliana (PR1 promoter-GFP reporter plants); assay type: in vivo; settings: 72 h, 3rd day after spraying, mock treated leaves set as 1.00, read-out: relative fluorescence value
Procedure, shortened: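 Transgenic A. thaliana carrying GFP under the salicylate-responsive PR1 promoter, grown five days, then sprayed with compounds. Whole-plant fluorescence imaged and quantified on day 3 post-spray, expressed relative to mock-treated leaf background set at 1.00.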

[4] = system: Uromyces appendiculatus; test: In vivo preventive test on Uromyces appendiculatus (bean rust); settings: 240 h, sprayed 72 hours before inoculation, evaluated 10 days after inoculation, read-out: efficacy; for pest or weed control at 31 ppm: 31 ppm of active ingredient; for pest or weed control at 125 ppm: 125 ppm of active ingredient; for pest or weed control at 500 ppm: 500 ppm of active ingredient
Procedure, shortened: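 Young bean plants sprayed with compound in acetone/DMSO/Tween diluted in water, then inoculated 72 h later with spore suspension. Incubated 24 h at 20° C., 100% RH, then 9 days at 20° C., 70-80% RH. Efficacy scored 10 days post-inoculation, 0% = untreated-control level, 100% = no disease.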

[5] = LogP by HPLC on reversed phase columns (EEC directive 79/831 Annex V.A8); assay type: physicochemical; settings: reversed phase HPLC columns
Procedure, shortened: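 LogP derived from retention time, interpolated linearly between bracketing alkan-2-one standards (3 to 16 carbons). Where several values exist for one method, all are listed with "+"; UV spectra 200–400 nm at peak maxima gave lambda-max.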

[6] = system: Xanthomonas campestris pv. campestris; test: In vivo preventive test on Xanthomonas campestris pv. campestris (black rot on cabbage); settings: Xanthomonas campestris, sprayed 72 hours before inoculation, evaluated 8 or 10 days after inoculation, read-out: efficacy; for pest or weed control at 31 ppm: 31 ppm of active ingredient; for pest or weed control at 125 ppm: 125 ppm of active ingredient; for pest or weed control at 500 ppm: 500 ppm of active ingredient
Procedure, shortened: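 Young cabbage plants sprayed preventively with compound formulated in acetone/DMSO/Tween and diluted in water, then inoculated 72 h later with a bacterial spray. Kept at 27° C, 95% relative humidity; disease scored after 8 or 10 days as % efficacy versus solvent-treated controls (0% = control, 100% = no disease).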

[7] = system: Colletotrichum lindemuthianum; test: In vivo preventive test on Colletotrichum lindemuthianum (Anthracnose on bean); settings: Colletotrichum lindemuthianum, 144 h, sprayed 72 hours before inoculation, evaluated 6 days after inoculation, read-out: efficacy; for pest or weed control at 500 ppm: 500 ppm of active ingredient; for pest or weed control at 31 ppm: 31 ppm of active ingredient; for pest or weed control at 125 ppm: 125 ppm of active ingredient
Procedure, shortened: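 Young bean plants were sprayed with compound in acetone/DMSO/Tween diluted in water, then inoculated 72 h later with C. lindemuthianum spores. Incubation was 24 h at 20 °C/100% RH, then 5 days at 20 °C/90% RH. Efficacy scored 6 days post-inoculation: 0% equals solvent-treated control, 100% means no disease.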

[8] = system: Peronospora parasitica; test: In vivo preventive test on Peronospora parasitica (Crucifer downy mildew) on cabbage; settings: Hyaloperonospora parasitica, 120 h, sprayed 72 hours before inoculation, evaluated 5 days after inoculation, read-out: efficacy; for pest or weed control at 31 ppm: 31 ppm of active ingredient; for pest or weed control at 125 ppm: 125 ppm of active ingredient; for pest or weed control at 500 ppm: 500 ppm of active ingredient
Procedure, shortened: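 Preventive protocol: spore inoculation followed compound spraying by 72 h, with 5 days' incubation at 20 °C and 100% relative humidity. Disease was rated 5 days after inoculation against solvent-only plants (0% = control level, 100% = disease-free).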

[9] = preparation examples, method not indicated, read-out: Log P

| SMILES | chromatographic logP ([5]; method [a]) | pest or weed control at 500 ppm [1] [%] | inhibition at 5 ppm [2] [%] | fold induction at 75 ppm [3] | fold induction at 300 ppm [3] | pest or weed control at 31 ppm [4] [%] | pest or weed control at 125 ppm [4] [%] | pest or weed control at 500 ppm [4] [%] | pest or weed control at 31 ppm [6] [%] | pest or weed control at 125 ppm [6] [%] | pest or weed control at 500 ppm [6] [%] | pest or weed control at 500 ppm [7] [%] | pest or weed control at 31 ppm [8] [%] | pest or weed control at 125 ppm [8] [%] | pest or weed control at 500 ppm [8] [%] | pest or weed control at 125 ppm [1] [%] | pest or weed control at 31 ppm [7] [%] | pest or weed control at 125 ppm [7] [%] | inhibition at 20 ppm [2] [%] | other results |
| --- | --- | --- | --- | --- | --- | --- | --- | --- | --- | --- | --- | --- | --- | --- | --- | --- | --- | --- | --- | --- |
| COC(=O)C(NC(=O)c1sc(Br)c(Br)c1C)C1CC1 (stereo not shown) [I.032] | 3.41 | 70 to 79 | ≤ 30 | > 2 | > 2 | 90 to 100 | 90 to 100 | 90 to 100 | 90 to 100 | 90 to 100 | 90 to 100 | 70 to 79 | 80 to 89 | 90 to 100 | 90 to 100 |  |  |  |  |  |
| CCOC(=O)C1(NC(=O)c2sc(Cl)c(Cl)c2C)CCC1 [I.047] | 3.67 |  | ≤ 30 |  | > 2 | 80 to 89 | 90 to 100 | 90 to 100 |  | 80 to 89 |  | 90 to 100 | 90 to 100 | 90 to 100 | 90 to 100 | 90 to 100 | 90 to 100 | 90 to 100 |  | pest or weed control at 31 ppm [1]: 70 to 79% |
| Cc1c(C(=S)NC2(C(=O)O)CC2)sc(Cl)c1Cl [I.060] | 2.84 | 70 to 79 | ≤ 30 | > 2 | > 2 | 90 to 100 | 90 to 100 | 90 to 100 |  | 70 to 79 | 80 to 89 |  | 90 to 100 | 90 to 100 | 90 to 100 |  |  | 80 to 89 | ≤ 30 |  |
| CCOC(=O)C(C#N)NC(=O)c1sc(Br)c(Br)c1C (stereo not shown) [I.077] | 3.22 | 80 to 89 | ≤ 30 | > 2 | > 2 | 70 to 79 | 90 to 100 | 90 to 100 | 80 to 89 | 80 to 89 |  | 90 to 100 | 80 to 89 | 90 to 100 | 90 to 100 |  | 80 to 89 | 80 to 89 | ≤ 30 |  |
| Cc1c(C(=O)NC(C(=O)O)C2CC2)sc(Br)c1Br (stereo not shown) [I.080, cyclopropyl{[(4,5-dibromo-3-methyl-2-thienyl)carbonyl]amino}acetic acid] |  | 70 to 79 | ≤ 30 | > 2 | > 2 |  |  | 90 to 100 | 70 to 79 | 80 to 89 | 90 to 100 | 70 to 79 |  | 90 to 100 | 90 to 100 |  |  |  | ≤ 30 | chromatographic logP [5, 9]: 2.67 |
| COC(=O)C(NC(=O)c1sc(Cl)c(Cl)c1C)C1CC1 (stereo not shown) [I.081, methyl cyclopropyl{[(4,5-dichloro-3-methyl-2-thienyl)carbonyl]amino}acetate] |  |  | ≤ 30 | > 2 | > 2 |  | 90 to 100 | 90 to 100 | 80 to 89 | 90 to 100 |  | 80 to 89 | 80 to 89 | 90 to 100 | 90 to 100 | 70 to 79 |  |  | ≤ 30 | chromatographic logP [5, 9]: 3.31 |

Now from value to compound, other results behind:

| chromatographic logP ([5]; method [a]) | SMILES | pest or weed control at 500 ppm [1] [%] | inhibition at 5 ppm [2] [%] | fold induction at 75 ppm [3] | fold induction at 300 ppm [3] | pest or weed control at 31 ppm [4] [%] | pest or weed control at 125 ppm [4] [%] | pest or weed control at 500 ppm [4] [%] | pest or weed control at 31 ppm [6] [%] | pest or weed control at 125 ppm [6] [%] | pest or weed control at 500 ppm [6] [%] | pest or weed control at 500 ppm [7] [%] | pest or weed control at 31 ppm [8] [%] | pest or weed control at 125 ppm [8] [%] | pest or weed control at 500 ppm [8] [%] | pest or weed control at 125 ppm [1] [%] | pest or weed control at 31 ppm [7] [%] | pest or weed control at 125 ppm [7] [%] | inhibition at 20 ppm [2] [%] | other results |
| --- | --- | --- | --- | --- | --- | --- | --- | --- | --- | --- | --- | --- | --- | --- | --- | --- | --- | --- | --- | --- |
| 2.59 | Cc1c(C(=O)NC(C(=O)O)C2CC2)sc(Cl)c1Cl (stereo not shown) [I.095] | 80 to 89 | ≤ 30 | > 2 | > 2 | 80 to 89 | 90 to 100 | 90 to 100 | 70 to 79 | 90 to 100 | 90 to 100 |  | 80 to 89 | 90 to 100 | 90 to 100 | 70 to 79 |  | 70 to 79 | ≤ 30 |  |
| 3.08 | COC(=O)CC[C@H](NC(=O)c1sc(Cl)c(Cl)c1C)C(=O)OC [I.122] | 80 to 89 | ≤ 30 | > 2 | > 2 |  |  | 90 to 100 | 90 to 100 | 90 to 100 | 90 to 100 | 80 to 89 | 90 to 100 | 90 to 100 | 90 to 100 | 80 to 89 | ≥ 70 | 70 to 79 | ≤ 30 | pest or weed control at 31 ppm [1]: 70 to 79% |
